Data as given in US8609690B2, “Aryl- and heteroarylcarbonyl derivatives of substituted nortropanes, medicaments containing such compounds and their use” (Boehringer Ingelheim International GmbH, priority 2008, dated 2013).

Target: T1, 11β-HSD 1 (Homo sapiens, UniProt P28845)
T1 construct: detecting cortisol generated from cortisterone by human liver microsomes; from tissue; host or cells: human liver microsomes
Assay: In vitro inhibition of 11β-HSD 1, HTRF detection of cortisol generated by human liver microsomes
Type: biochemical
Details: 1 μM test compound, 100% indicates no inhibition, zero or below zero indicates complete inhibition (relative to carbenoxolone)
Method: Briefly, compounds were incubated for 1 hour at 37° C. in Tris buffer (20 mM tris, 5 mM EDTA, pH 6.0) containing NADPH (200 μM) and cortisone (80 nM). Cortisol generated in the reaction is then detected with a competitive immunoassay, involving two HTRF conjugates: cortisol linked to XL665 and anti-cortisol antibody labeled with Europium cryptate. The incubation period for detection reaction was typically 2 hours. The amount of cortisol is determined by reading the time-resolved fluorescence of the wells (Ex 320/75 nm; Em 615/8.5 nm and 665/7.5 nm). The ratio of the two emission signals is then calculated (Em665*10000/Em615). […] Each assay also contained a calibration curve with cortisol to transform the fluorescent data into cortisol concentrations. Percent inhibition of each compound was determined relative to the carbenoxolone signal. In Table 2 the 11β-HSD 1 inhibitory activities at 1 μM concentration of test compound, determined as described above, of the compounds listed in Table 3 are compiled, wherein 100% indicates no inhibition and a value of zero or below zero indicates complete inhibition.

T1 sequence (P28845 whole entry): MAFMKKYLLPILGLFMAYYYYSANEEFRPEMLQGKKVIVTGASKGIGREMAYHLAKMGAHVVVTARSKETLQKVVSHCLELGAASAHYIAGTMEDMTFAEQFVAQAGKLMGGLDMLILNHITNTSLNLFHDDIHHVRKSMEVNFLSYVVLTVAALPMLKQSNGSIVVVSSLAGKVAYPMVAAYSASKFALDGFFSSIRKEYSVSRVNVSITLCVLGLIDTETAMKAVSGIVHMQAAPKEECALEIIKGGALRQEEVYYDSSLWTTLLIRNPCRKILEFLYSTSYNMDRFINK

Row | Structure (SMILES) | Inhibitory activity on 11β-HSD 1, % CTL [% CTL]
1 | Cn1nnc2cc(C(=O)N3[C@@H]4CC[C@H]3C[C@@H](c3ccc(F)cc3)C4)ccc21 [Example 68, endo-[3-(4-Fluoro-phenyl)-8-aza-bicyclo[3.2.1]oct-8-yl]-(1-methyl-1H-benzotriazol-5-yl)-methanone] | 66
2 | O=C(c1cccc2ncccc12)N1[C@@H]2CC[C@H]1C[C@@H](c1ccc(F)cc1)C2 [Example 37, endo-[3-(4-Fluoro-phenyl)-8-aza-bicyclo[3.2.1]oct-8-yl]-quinolin-5-yl-methanone] | 39
3 | NC(=O)c1ccc(C(=O)N2[C@@H]3CC[C@H]2C[C@@H](c2ccc(F)cc2)C3)c(F)c1 [Example 36, endo-3-Fluoro-4-[3-(4-fluoro-phenyl)-8-aza-bicyclo[3.2.1]octane-8-carbonyl]-benzamide] | −28
4 | CC(C)(C)Oc1cccc(C(=O)N2[C@@H]3CC[C@H]2C[C@@H](c2ccc(F)cc2)C3)c1 [Example 45, endo-(3-tert-Butoxy-phenyl)-[3-(4-fluoro-phenyl)-8-aza-bicyclo[3.2.1]oct-8-yl]-methanone] | 82
5 | O=C(c1ccc2c(c1)OCCO2)N1C2CCC1CC(c1ccc(Cl)cc1)C2 (stereo not shown) [Example 151, [3-(4-Chloro-phenyl)-8-aza-bicyclo[3.2.1]oct-8-yl]-(2,3-dihydro-benzo[1,4]dioxin-6-yl)-methanone] | −44
6 | O=C(c1cccc(O)c1)N1[C@@H]2CC[C@H]1C[C@@H](c1ccc(F)cc1)C2 [Example 129, endo-[3-(4-Fluoro-phenyl)-8-aza-bicyclo[3.2.1]oct-8-yl]-(3-hydroxy-phenyl)-methanone] | −1
7 | CNC(=O)c1ccc(C(=O)N2[C@@H]3CC[C@H]2C[C@@H](c2ccc(F)cc2)C3)cc1 [Example 79, endo-4-[3-(4-Fluoro-phenyl)-8-aza-bicyclo[3.2.1]octane-8-carbonyl]N-methyl-benzamide] | 90
8 | Cc1[nH]c2cc(C(=O)N3[C@@H]4CC[C@H]3C[C@@H](c3ccc(F)cc3)C4)ccc2c1C [Example 52, endo-(2,3-Dimethyl-1H-indol-6-yl)-[3-(4-fluoro-phenyl)-8-aza-bicyclo[3.2.1]oct-8-yl]-methanone] | 82
9 | Cc1cccc(C(=O)N2[C@@H]3CC[C@H]2C[C@@H](c2ccc(F)cc2)C3)c1 [Example 99, endo-[3-(4-Fluoro-phenyl)-8-aza-bicyclo[3.2.1]oct-8-yl]-m-tolyl-methanone] | −39
10 | Cn1ccc2ccc(C(=O)N3[C@@H]4CC[C@H]3C[C@@H](c3ccc(F)cc3)C4)cc21 [Example 53, endo-[3-(4-Fluoro-phenyl)-8-aza-bicyclo[3.2.1]oct-8-yl]-(1-methyl-1H-indol-6-yl)-methanone] | −55
11 | COc1cccc(C(=O)N2[C@@H]3CC[C@H]2C[C@@H](c2ccc(F)cc2)C3)c1 [Example 109, endo-[3-(4-Fluoro-phenyl)-8-aza-bicyclo[3.2.1]oct-8-yl]-(3-methoxy-phenyl)-methanone] | −33
12 | CC(C)c1ccc([C@H]2C[C@H]3CC[C@@H](C2)N3C(=O)c2ccc3c(c2)OCCO3)cc1 [Example 136, endo-(2,3-Dihydro-benzo[1,4]dioxin-6-yl)-[3-(4-isopropyl-phenyl)-8-aza-bicyclo[3.2.1]oct-8-yl]-methanone] | 17
13 | Cc1ccc(C(=O)N2[C@@H]3CC[C@H]2C[C@@H](c2ccc(F)cc2)C3)cc1O [Example 55, endo-[3-(4-Fluoro-phenyl)-8-aza-bicyclo[3.2.1]oct-8-yl]-(3-hydroxy-4-methyl-phenyl)-methanone] | 31
14 | COc1cc(C(=O)N2[C@@H]3CC[C@H]2C[C@@H](c2ccc(F)cc2)C3)cc(Cl)c1O [Example 175, endo-(3-Chloro-4-hydroxy-5-methoxy-phenyl)-[3-(4-fluoro-phenyl)-8-aza-bicyclo[3.2.1]oct-8-yl]-methanone] | −37
15 | O=C(c1ccc2[nH]ccc2c1)N1[C@@H]2CC[C@H]1C[C@@H](c1ccc(F)cc1)C2 [Example 113, endo-[3-(4-Fluoro-phenyl)-8-aza-bicyclo[3.2.1]oct-8-yl]-(1H-indol-5-yl)-methanone] | −23
16 | COc1cccc(C(=O)N2[C@@H]3CC[C@H]2C[C@@H](c2ccc(F)cc2)C3)c1OC [Example 127, endo-(2,3-Dimethoxy-phenyl)-[3-(4-fluoro-phenyl)-8-aza-bicyclo[3.2.1]oct-8-yl]-methanone] | 85

Row | Structure (SMILES) | Inhibitory activity on 11β-HSD 1, % CTL [% CTL]
17 | COc1cccc([C@H]2C[C@H]3CC[C@@H](C2)N3C(=O)c2ccc3c(c2)OCCO3)c1 [Example 139, endo-(2,3-Dihydro-benzo[1,4]dioxin-6-yl)-[3-(3-methoxy-phenyl)-8-aza-bicyclo[3.2.1]oct-8-yl]-methanone] | 21
18 | O=C(c1cccc(-c2cnco2)c1)N1[C@@H]2CC[C@H]1C[C@@H](c1ccc(F)cc1)C2 [Example 91, endo-[3-(4-Fluoro-phenyl)-8-aza-bicyclo[3.2.1]oct-8-yl]-(3-oxazol-5-yl-phenyl)-methanone] | 69
19 | O=C(c1ccc2c(c1)OCCO2)N1C2CCC1CC(c1ccccc1)C2 (stereo not shown) [Example 133, (2,3-Dihydro-benzo[1,4]dioxin-6-yl)-(3-phenyl-8-aza-bicyclo[3.2.1]oct-8-yl)-methanone] | −28
20 | O=C1NCc2cccc(C(=O)N3[C@@H]4CC[C@H]3C[C@@H](c3ccc(F)cc3)C4)c21 [Example 95, endo-7-[3-(4-Fluoro-phenyl)-8-aza-bicyclo[3.2.1]octane-8-carbonyl]-2,3-dihydro-isoindol-1-one] | 92
21 | O=C(c1ccc2c(c1)OCCO2)N1[C@@H]2CC[C@H]1C[C@@H](c1cccnc1)C2 [Example 153, endo-(2,3-Dihydro-benzo[1,4]dioxin-6-yl)-(3-pyridin-3-yl-8-aza-bicyclo[3.2.1]oct-8-yl)-methanone] | −4
22 | Cc1cc(C(F)F)n2ncc(C(=O)N3[C@@H]4CC[C@H]3C[C@@H](c3ccc(F)cc3)C4)c2n1 [Example 4, endo-(7-Difluoromethyl-5-methyl-pyrazolo[1,5-a]pyrimidin-3-yl)-[3-(4-fluoro-phenyl)-8-aza-bicyclo[3.2.1]oct-8-yl]-methanone] | 87
23 | CS(=O)(=O)c1cccc(C(=O)N2[C@@H]3CC[C@H]2C[C@@H](c2ccc(F)cc2)C3)c1 [Example 67, Endo-[3-(4-Fluoro-phenyl)-8-aza-bicyclo[3.2.1]oct-8-yl]-(3-methanesulfonyl-phenyl)-methanone] | 85
24 | O=C(c1ccc(CO)cc1)N1[C@@H]2CC[C@H]1C[C@@H](c1ccc(F)cc1)C2 [Example 121, endo-[3-(4-Fluoro-phenyl)-8-aza-bicyclo[3.2.1]oct-8-yl]-(4-hydroxymethyl-phenyl)-methanone] | −28
25 | O=C(c1nsc(Cl)c1Cl)N1[C@@H]2CC[C@H]1C[C@@H](c1ccc(F)cc1)C2 [Example 30, endo-(4,5-Dichloro-isothiazol-3-yl)-[3-(4-fluoro-phenyl)-8-aza-bicyclo[3.2.1]oct-8-yl]-methanone] | 88
26 | O=C(c1cccc(N2CCCCS2(=O)=O)c1)N1C2CCC1CC(c1ccc(F)cc1)C2 (stereo not drawn) [Example 40, endo-[3-(1,1-Dioxo-1lambda*6*-[1,2]thiazinan-2-yl)-phenyl-[3-(4-fluoro-phenyl)-8-aza-bicyclo[3.2.1]oct-8-yl]-methanone] | 98
27 | O=C(c1ccc2ncsc2c1)N1[C@@H]2CC[C@H]1C[C@@H](c1ccc(F)cc1)C2 [Example 94, endo-Benzothiazol-6-yl-[3-(4-fluoro-phenyl)-8-aza-bicyclo[3.2.1]oct-8-yl]-methanone] | 12
28 | NC(=O)c1cccc(C(=O)N2[C@@H]3CC[C@H]2C[C@@H](c2ccc(F)cc2)C3)c1 [Example 84, endo-3-[3-(4-Fluoro-phenyl)-8-aza-bicyclo[3.2.1]octane-8-carbonyl]-benzamide] | 41
29 | Cc1cc(C(F)(F)F)n2nc(C(=O)N3[C@@H]4CC[C@H]3C[C@@H](c3ccc(F)cc3)C4)cc2n1 [Example 42, endo-[3-(4-Fluoro-phenyl)-8-aza-bicyclo[3.2.1]oct-8-yl]-(5-methyl-7-trifluoromethyl-pyrazolo[1,5-a]pyrimidin-2-yl)-methanone] | 93
30 | O=C(c1cccc(-c2cc[nH]n2)c1)N1[C@@H]2CC[C@H]1C[C@@H](c1ccc(F)cc1)C2 [Example 90, endo-[3-(4-Fluoro-phenyl)-8-aza-bicyclo[3.2.1]oct-8-yl]-[3-(1H-pyrazol-3-yl)-phenyl]-methanone] | 42
31 | Cn1cnc2cc(C(=O)N3[C@@H]4CC[C@H]3C[C@@H](c3ccc(F)cc3)C4)ccc21 [Example 66, endo-[3-(4-Fluoro-phenyl)-8-aza-bicyclo[3.2.1]oct-8-yl]-(1-methyl-1H-benzoimidazol-5-yl)-methanone] | 77
